Assay results published in ChEMBL document CHEMBL1201861, “Genomics of Drug Sensitity in Cancer screening data, Wellcome Trust Sanger Institute”.

Key:
Assay in all cases: cells
CTB-1 = assay type: functional, cell-based; conditions: Homo sapiens
Description: SANGER: Inhibition of human CTB-1 cell growth in a cell viability assay.

CTV-1 = assay type: functional, cell-based; conditions: Homo sapiens;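 also: growth inhibition of the cell line, read out with a cell viability assay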
Description: SANGER: Inhibition of human CTV-1 cell growth in a cell viability assay.

Ca-Ski = assay type: functional, cell-based; conditions: Homo sapiens;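 also: cell viability assay measuring inhibition of Ca-Ski cell growth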
Description: SANGER: Inhibition of human Ca-Ski cell growth in a cell viability assay.

D-263MG = assay type: functional, cell-based, Homo sapiens; conditions: Homo sapiens, D-263MG
Description: SANGER: Inhibition of human D-263MG cell growth in a cell viability assay.

DMS-114 = assay type: functional, cell-based, Homo sapiens; conditions: Homo sapiens, DMS-114
ETK-1 = assay type: functional, cell-based, Homo sapiens; conditions: Homo sapiens, ETK-1;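 also: growth inhibition of human ETK-1 cells, read out with a cell viability assay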
Description: SANGER: Inhibition of human ETK-1 cell growth in a cell viability assay.

G-401 = assay type: functional, cell-based, Homo sapiens; conditions: Homo sapiens, G-401
Description: SANGER: Inhibition of human G-401 cell growth in a cell viability assay.

GCT = assay type: functional, cell-based, Homo sapiens; conditions: Homo sapiens, GCT;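 also: GCT cell line proliferation inhibition, read out with a cell viability assay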
Description: SANGER: Inhibition of human GCT cell growth in a cell viability assay.

HCC1806 = assay type: functional, cell-based, Homo sapiens; conditions: Homo sapiens, HCC1806;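 also: growth inhibition of the cancer cell line, determined with a cell viability assay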
Description: SANGER: Inhibition of human HCC1806 cell growth in a cell viability assay.

HEC-1 = assay type: functional, cell-based, Homo sapiens; conditions: Homo sapiens, HEC-1;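 also: growth inhibition of the cell line, read out with a cell viability assay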
Description: SANGER: Inhibition of human HEC-1 cell growth in a cell viability assay.

HT = assay type: functional, cell-based; conditions: Homo sapiens
Description: SANGER: Inhibition of human HT cell growth in a cell viability assay.

HT1197 = assay type: functional, cell-based, Homo sapiens, HT-1197; conditions: Homo sapiens, HT1197
Description: SANGER: Inhibition of human HT-1197 cell growth in a cell viability assay.

IA-LM = assay type: functional, cell-based, Homo sapiens; conditions: Homo sapiens, IA-LM;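 also: cell viability assay measuring growth inhibition of human IA-LM cells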
Description: SANGER: Inhibition of human IA-LM cell growth in a cell viability assay.

KALS-1 = assay type: functional, cell-based, Homo sapiens; conditions: Homo sapiens, KALS-1;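 also: growth inhibition of KALS-1 cells, determined with a cell viability assay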
Description: SANGER: Inhibition of human KALS-1 cell growth in a cell viability assay.

KP-4 = assay type: functional, cell-based, Homo sapiens; conditions: Homo sapiens, KP-4; read-out: IC50;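 also: human KP-4 cells, with growth inhibition read out through a cell viability assay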
Description: SANGER: Inhibition of human KP-4 cell growth in a cell viability assay.

KYSE-520 cell line = assay type: functional, cell-based, Homo sapiens; conditions: Homo sapiens, KYSE-520;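 also: growth inhibition of human KYSE-520 cells, read out with a viability assay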
Description: SANGER: Inhibition of human KYSE-520 cell growth in a cell viability assay.

LAMA-84 = assay type: functional, cell-based; conditions: Homo sapiens;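 also: growth inhibition of LAMA-84 cells, read out with a cell viability assay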
Description: SANGER: Inhibition of human LAMA-84 cell growth in a cell viability assay.

LB2241-RCC = assay type: functional, cell-based, Homo sapiens; conditions: Homo sapiens, LB2241-RCC;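 also: cell viability assay measuring how strongly the cultured human renal carcinoma line is prevented from growing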
Description: SANGER: Inhibition of human LB2241-RCC cell growth in a cell viability assay.

LB373-MEL-D = assay type: functional, cell-based, Homo sapiens; conditions: Homo sapiens, LB373-MEL-D;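 also: growth inhibition of the cell line, read out in a cell viability assay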
Description: SANGER: Inhibition of human LB373-MEL-D cell growth in a cell viability assay.

Lu-65 = assay type: functional, cell-based; conditions: Homo sapiens;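 also: growth inhibition of Lu-65 cancer cells, read out by a cell viability assay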
Description: SANGER: Inhibition of human LU-65 cell growth in a cell viability assay.

MCF7 = assay type: functional, cell-based, Homo sapiens; conditions: Homo sapiens, MCF7;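 also: growth inhibition of human MCF7 cells, read out with a cell viability assay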
Description: SANGER: Inhibition of human MCF7 cell growth in a cell viability assay.

MG-63 = assay type: functional, cell-based, Homo sapiens; conditions: Homo sapiens, MG-63;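 also: growth inhibition of human MG-63 cells, read out with a cell viability assay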
Description: SANGER: Inhibition of human MG-63 cell growth in a cell viability assay.

NB12 = assay type: functional, cell-based, Homo sapiens; conditions: Homo sapiens, NB12;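 also: growth inhibition of human NB12 cells, read out by a cell viability assay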
Description: SANGER: Inhibition of human NB12 cell growth in a cell viability assay.

NB13 = assay type: functional, cell-based, Homo sapiens; conditions: Homo sapiens, NB13;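 also: cell viability readout measuring growth inhibition of human NB13 cells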
Description: SANGER: Inhibition of human NB13 cell growth in a cell viability assay.

NB69 = assay type: functional, cell-based, Homo sapiens; conditions: Homo sapiens, NB69;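 also: growth inhibition of NB69 cells, determined by a cell viability assay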
Description: SANGER: Inhibition of human NB69 cell growth in a cell viability assay.

NCI-H1395 = assay type: functional, cell-based, Homo sapiens; conditions: Homo sapiens, NCI-H1395;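 also: cell viability assay read-out quantifying reduced proliferation of human NCI-H1395 cells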
Description: SANGER: Inhibition of human NCI-H1395 cell growth in a cell viability assay.

NCI-H1563 = assay type: functional, cell-based, Homo sapiens; conditions: Homo sapiens, NCI-H1563;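 also: growth inhibition of human NCI-H1563 cells, read out with a cell viability assay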
Description: SANGER: Inhibition of human NCI-H1563 cell growth in a cell viability assay.

NCI-H1838 = assay type: functional, cell-based, Homo sapiens; conditions: Homo sapiens, NCI-H1838;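 also: growth inhibition of NCI-H1838 cells, determined with a cell viability readout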
Description: SANGER: Inhibition of human NCI-H1838 cell growth in a cell viability assay.

NCI-H2087 = assay type: functional, cell-based, Homo sapiens; conditions: Homo sapiens, NCI-H2087;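 also: growth inhibition determined with a cell viability readout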
Description: SANGER: Inhibition of human NCI-H2087 cell growth in a cell viability assay.

NCI-H2122 = assay type: functional, cell-based, Homo sapiens; conditions: Homo sapiens, NCI-H2122;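 also: growth inhibition of the cells, read out with a cell viability assay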
Description: SANGER: Inhibition of human NCI-H2122 cell growth in a cell viability assay.

NCI-H2126 = assay type: functional, cell-based, Homo sapiens; conditions: Homo sapiens, NCI-H2126;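 also: growth inhibition of the cancer cell line, determined with a cell viability readout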
Description: SANGER: Inhibition of human NCI-H2126 cell growth in a cell viability assay.

NEC8 = assay type: functional, cell-based, Homo sapiens; conditions: Homo sapiens, NEC8;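 also: growth inhibition of human NEC8 cells, read out by a cell viability assay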
Description: SANGER: Inhibition of human NEC8 cell growth in a cell viability assay.

OS-RC-2 = assay type: functional, cell-based, Homo sapiens; conditions: Homo sapiens, OS-RC-2;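 also: growth inhibition of human OS-RC-2 cells, measured by a cell viability assay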
Description: SANGER: Inhibition of human OS-RC-2 cell growth in a cell viability assay.

SAS = assay type: functional, cell-based, Homo sapiens; conditions: Homo sapiens, SAS;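 also: growth inhibition of SAS cells, read out with a cell viability assay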
Description: SANGER: Inhibition of human SAS cell growth in a cell viability assay.

SK-MEL-24 = assay type: functional, cell-based; conditions: Homo sapiens;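 also: growth inhibition read out by a cell viability assay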
Description: SANGER: Inhibition of human SK-MEL-24 cell growth in a cell viability assay.

SK-MEL-28 = assay type: functional, cell-based; conditions: Homo sapiens;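 also: growth inhibition of human SK-MEL-28 cells, read out with a cell viability assay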
Description: SANGER: Inhibition of human SK-MEL-28 cell growth in a cell viability assay.

SK-N-FI = assay type: functional, cell-based, Homo sapiens; conditions: Homo sapiens, SK-N-FI;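 also: cell viability assay measuring growth inhibition of human SK-N-FI cells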
Description: SANGER: Inhibition of human SK-N-FI cell growth in a cell viability assay.

SK-NEP-1 = assay type: functional, cell-based; conditions: Homo sapiens;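 also: growth inhibition of human SK-NEP-1 cells, read out by a cell viability assay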
Description: SANGER: Inhibition of human SK-NEP-1 cell growth in a cell viability assay.

SW1783 = assay type: functional, cell-based; conditions: Homo sapiens;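 also: cell growth inhibition measured with a viability assay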
Description: SANGER: Inhibition of human SW1783 cell growth in a cell viability assay.

SW626 = assay type: functional, cell-based, Homo sapiens; conditions: Homo sapiens, SW626;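 also: growth inhibition of SW626 cells, measured with a cell viability assay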
Description: SANGER: Inhibition of human SW626 cell growth in a cell viability assay.

SW684 = assay type: functional, cell-based, Homo sapiens; conditions: Homo sapiens, SW684;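 also: growth inhibition of human SW684 cells, measured by a cell viability assay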
Description: SANGER: Inhibition of human SW684 cell growth in a cell viability assay.

SW948 = assay type: functional, cell-based, Homo sapiens; conditions: Homo sapiens, SW948;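 also: growth inhibition of SW948 cells, read out with a cell viability assay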
Description: SANGER: Inhibition of human SW948 cell growth in a cell viability assay.

SW 962 = assay type: functional, cell-based, Homo sapiens; conditions: Homo sapiens, SW 962;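 also: growth inhibition of human SW962 cells, read out by a cell viability assay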
Description: SANGER: Inhibition of human SW962 cell growth in a cell viability assay.

5637 = assay type: functional, cell-based, Homo sapiens; conditions: Homo sapiens
Description: SANGER: Inhibition of human 5637 cell growth in a cell viability assay.

A101D = assay type: functional, cell-based, Homo sapiens; conditions: Homo sapiens, A101D;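 also: growth inhibition of the cell line, measured with a viability assay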
Description: SANGER: Inhibition of human A101D cell growth in a cell viability assay.

ALL-PO = assay type: functional, cell-based; conditions: Homo sapiens;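 also: growth inhibition of ALL-PO cells, read out by a cell viability assay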
Description: SANGER: Inhibition of human ALL-PO cell growth in a cell viability assay.

BHY = assay type: functional, cell-based, Homo sapiens; conditions: Homo sapiens, BHY;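 also: cell growth inhibition read out by a viability assay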
Description: SANGER: Inhibition of human BHY cell growth in a cell viability assay.

BT-20 = assay type: functional, cell-based, Homo sapiens; conditions: Homo sapiens, BT-20;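 also: cell viability assay measuring suppression of growth in human BT-20 cells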
Description: SANGER: Inhibition of human BT-20 cell growth in a cell viability assay.

Becker = assay type: functional, cell-based, Homo sapiens; conditions: Homo sapiens, Becker;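 also: growth inhibition of Becker cells, read out with a cell viability assay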
Description: SANGER: Inhibition of human Becker cell growth in a cell viability assay.

BXPC-3 = assay type: functional, cell-based, Homo sapiens; conditions: Homo sapiens, BXPC-3;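 also: growth inhibition of human BxPC-3 cells, read out by a cell viability assay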
Description: SANGER: Inhibition of human BxPC-3 cell growth in a cell viability assay.

UACC-893 = assay type: functional, cell-based, Homo sapiens; conditions: Homo sapiens, UACC-893
Description: SANGER: Inhibition of human UACC-893 cell growth in a cell viability assay.

YKG-1 = assay type: functional, cell-based, Homo sapiens; conditions: Homo sapiens, YKG-1;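 also: cell growth inhibition, read out with a viability assay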
Description: SANGER: Inhibition of human YKG-1 cell growth in a cell viability assay.

Question: Which IC50 (CTB-1) does the source give for `Cc1cnc(-c2cnc(NCCNc3ccc(C#N)cn3)nc2-c2ccc(Cl)cc2Cl)[nH]1` [LADUVIGLUSIB] here?
Answer: > 2560 nM

Question: What about the IC50 (CTV-1) of the same compound?
Answer: > 2560 nM

Question: What about the IC50 (Ca-Ski) of the same compound?
Answer: > 2560 nM

Question: What about the IC50 (D-263MG) of the same compound?
Answer: > 2560 nM

Question: What about the IC50 (DMS-114) of the same compound?
Answer: > 2560 nM

Question: And the IC50 (ETK-1)?
Answer: > 2560 nM

Question: What about the IC50 (G-401) of the same compound?
Answer: > 2560 nM

Question: What about the IC50 (GCT) of the same compound?
Answer: 307 nM

Question: What about the IC50 (HCC1806) of the same compound?
Answer: > 2560 nM

Question: What about the IC50 (HEC-1) of the same compound?
Answer: > 2560 nM

Question: And the IC50 (HT)?
Answer: > 2560 nM

Question: And the IC50 (HT1197)?
Answer: > 2560 nM

Question: What about the IC50 (IA-LM) of the same compound?
Answer: > 2560 nM

Question: What about the IC50 (KALS-1) of the same compound?
Answer: > 2560 nM

Question: And the IC50 (KP-4)?
Answer: > 2560 nM

Question: What about the IC50 (KYSE-520 cell line) of the same compound?
Answer: > 2560 nM

Question: What about the IC50 (LAMA-84) of the same compound?
Answer: > 2560 nM

Question: And the IC50 (LB2241-RCC)?
Answer: > 2560 nM

Question: And the IC50 (LB373-MEL-D)?
Answer: > 2560 nM

Question: What about the IC50 (Lu-65) of the same compound?
Answer: > 2560 nM

Question: And the IC50 (MCF7)?
Answer: > 2560 nM

Question: What about the IC50 (MG-63) of the same compound?
Answer: > 2560 nM

Question: And the IC50 (NB12)?
Answer: > 2560 nM

Question: And the IC50 (NB13)?
Answer: > 2560 nM

Question: What about the IC50 (NB69) of the same compound?
Answer: > 2560 nM

Question: And the IC50 (NCI-H1395)?
Answer: > 2560 nM

Question: What about the IC50 (NCI-H1563) of the same compound?
Answer: > 2560 nM

Question: What about the IC50 (NCI-H1838) of the same compound?
Answer: > 2560 nM

Question: And the IC50 (NCI-H2087)?
Answer: > 2560 nM

Question: What about the IC50 (NCI-H2122) of the same compound?
Answer: 2280 nM

Question: And the IC50 (NCI-H2126)?
Answer: > 2560 nM

Question: What about the IC50 (NEC8) of the same compound?
Answer: > 2560 nM

Question: What about the IC50 (OS-RC-2) of the same compound?
Answer: > 2560 nM

Question: What about the IC50 (SAS) of the same compound?
Answer: > 2560 nM

Question: And the IC50 (SK-MEL-24)?
Answer: > 2560 nM

Question: What about the IC50 (SK-MEL-28) of the same compound?
Answer: > 2560 nM

Question: What about the IC50 (SK-N-FI) of the same compound?
Answer: > 2560 nM

Question: And the IC50 (SK-NEP-1)?
Answer: > 2560 nM

Question: And the IC50 (SW1783)?
Answer: > 2560 nM

Question: And the IC50 (SW626)?
Answer: > 2560 nM

Question: What about the IC50 (SW684) of the same compound?
Answer: > 2560 nM

Question: And the IC50 (SW948)?
Answer: > 2560 nM

Question: What about the IC50 (SW 962) of the same compound?
Answer: > 2560 nM

Question: And the IC50 5637?
Answer: > 2560 nM

Question: What about the IC50 (A101D) of the same compound?
Answer: > 2560 nM

Question: And the IC50 (ALL-PO)?
Answer: > 2560 nM

Question: What about the IC50 (BHY) of the same compound?
Answer: > 2560 nM

Question: And the IC50 (BT-20)?
Answer: > 2560 nM

Question: What about the IC50 (Becker) of the same compound?
Answer: > 2560 nM

Question: And the IC50 (BXPC-3)?
Answer: > 2560 nM

Question: And the IC50 (UACC-893)?
Answer: > 2560 nM

Question: What about the IC50 (YKG-1) of the same compound?
Answer: > 2560 nM
